The text below walks through data of US11987608B2, “Composition for accelerating cell proliferation comprising erythropoietin-derived peptide” (SYLUS CO., LTD., priority 2018, dated 2024).

Read-outs that look alike come from different tables or passages of the source. No end group written: not given here.

The target of assay [1] is T1, Soluble mouse EPOR chimera proteins (Mus musculus, UniProt P14753).
T1 construct: Soluble mouse EPOR chimera proteins; purchased R&D Systems
T1 sequence (P14753 25-249 limits assumed): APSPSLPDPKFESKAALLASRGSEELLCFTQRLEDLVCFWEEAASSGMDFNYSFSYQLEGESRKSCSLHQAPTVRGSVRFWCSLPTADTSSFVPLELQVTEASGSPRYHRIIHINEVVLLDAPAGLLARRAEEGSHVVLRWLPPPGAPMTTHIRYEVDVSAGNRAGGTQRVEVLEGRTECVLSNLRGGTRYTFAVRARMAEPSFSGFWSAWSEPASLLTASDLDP
Briefly: SPR binding affinity of erythropoietin-derived peptides to erythropoietin receptor. The conditions noted are these: for kon: read-out: Ka (association rate); for koff: read-out: Kd (dissociation rate). Here is the method: The SPR technique is to measure interactions between biomolecules in real-time by using an optical principle without specific labeling, and is a system analyzing affinity between two molecules and kinetics, i.e., an association rate (Ka) and a dissociation rate (Kd).
In detail, real-time SPR analysis was performed using Reichert SPR Biosensor SR 7500C instrument (Reichert Inc., NY, USA). Soluble mouse EPOR chimera proteins (R&D Systems, Minneapolis, MN, USA) were covalently linked to a carboxymethylated dextran matrix-coated chip (BR-1005-39, Pharmacia Biosensor AB) by an amine coupling procedure using an amine coupling kit (BR-1000-50, GE Healthcare, USA) in accordance with manufacturer's instructions. Each 5 μM, 2.5 μM, and 1.25 μM of the peptide samples of the present disclosure and scrambled peptides were applied at a flow rate of 5 μl/minute, and the experiments were independently performed in duplicate. For signal normalization, DMSO was applied at a flow rate of 5 μl/minute, and after each binding cycle, the sensor chip was regenerated by injecting 25 mM acetic acid at a flow rate of 20 μl/minute.

The subject of another assay is mice. As to the kind of experiment: In vivo hematopoietic activity, blood test. Also noted: species or system mouse. Here is the method:
In vivo hematopoietic activities in a mouse were measured for the peptides prepared in Example 5, MLP, MLP-C, and MLP-H.
In detail, the prepared peptide or scrambled (Scr) peptide as a negative control group was administered by intraperitoneal injection to mice at a dose of 0 μg/kg, 1 μg/kg, or 100 μg/kg repeatedly, everyday over 14 days. Thereafter, a body weight test and a blood test were performed.

For another assay, the target named is T2, erythropoietin receptor (Homo sapiens, UniProt P19235).
T2 construct: expressed in transfected cells
T2 sequence (P19235 25-508): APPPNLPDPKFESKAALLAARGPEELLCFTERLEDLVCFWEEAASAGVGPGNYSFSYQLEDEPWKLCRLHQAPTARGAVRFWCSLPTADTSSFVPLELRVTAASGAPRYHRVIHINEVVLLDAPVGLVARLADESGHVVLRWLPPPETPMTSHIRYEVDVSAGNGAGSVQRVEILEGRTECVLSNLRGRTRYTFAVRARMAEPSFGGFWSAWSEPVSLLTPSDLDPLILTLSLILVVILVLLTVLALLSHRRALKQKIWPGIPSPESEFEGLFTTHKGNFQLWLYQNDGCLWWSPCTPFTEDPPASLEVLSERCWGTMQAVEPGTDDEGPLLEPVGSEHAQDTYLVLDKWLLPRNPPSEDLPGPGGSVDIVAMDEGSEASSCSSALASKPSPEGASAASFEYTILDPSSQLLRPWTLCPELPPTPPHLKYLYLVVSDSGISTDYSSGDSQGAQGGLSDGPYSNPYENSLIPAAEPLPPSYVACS
As to the kind of experiment: Erythropoietin receptor activation through ERK1/2 phosphorylation (western blot) in HEK 293 cells expressing EPOR-GFP. The format is cell-based. The conditions noted are these: FIG. 12; for character of erythropoietin receptor activation: ERK1/2 phosphorylation.

In assay [2] the test system is PC12 cells. As to the kind of experiment: Comparison of cell protective and proliferative effects to EPO by K-means clustering. The format is cell-based. The conditions noted are these: FIG. 9.
Assay [3] concerns PC12 cells. As to the kind of experiment: Cell proliferation, MTT assay. The note with it: 10 ng/ml peptide, 24 hours, FIG. 7. The format is cell-based. As for the experimental part:
To determine the side effect, such as cell proliferation, of the peptides prepared in Examples 1 to 3, cell viability was evaluated by an MTT assay.
In detail, PC12 cells were cultured in a DMEM (Dulbecco's Modified Eagle's Medium) medium (Hyclone, USA) and an RPM11640 medium (Hyclone, UT, USA), each supplemented with 10% fetal bovine serum (FBS, Hyclone, Utah, USA), 100 unit/ml penicillin, and 100 μg/ml streptomycin (Hyclone, UT, USA) in an incubator supplied with 5% CO2 and under a condition of 37° C. PC12 cell lines were seeded in a 96-well plate at a density of 5×10^4 cells/ml, and cultured under conditions of 37° C. and 5% CO2 for 24 hours. Thereafter, the cells were treated with each of the peptides of Examples 1 to 3, which were prepared at a concentration of 10 ng/ml, followed by incubation for 24 hours. Thereafter, 20 μl of 5 mg/ml 3-[4,5-dimethyl-thiazol]-2,5-diphenyl-tetrazolium bromide (MTT) reagent was added thereto, and allowed to react for 2 hours. After reaction, 200 μl of dimethyl sulfoxide (DMSO, Duksan, Gyeonggi-do, Korea) was added thereto to completely dissolve formed formazan, and absorbance at 570 nm was measured using a microplate reader (Molecular Devices, CA, USA).
(Tetrazolium dyes change colour on reduction, which living cells bring about.)

[4] abbreviates: 100 μg/kg intraperitoneal daily over 14 days.
The mark [5] stands for this setting: sampling at 0, 30, 60, 90 minutes.

In the case of AGLRSRAHLRRALA [ML5-1], in assay [1] (SPR, Table 10), the kon came out at 442 M⁻¹ s⁻¹ and the koff came out at 0.0346 s⁻¹.
Consider “RHVKKRVKGLKSLTTLLRA (MLP-C) [ML1-C3 with two amino acids removed from both ends, for in vivo use]”, for which, in the assay on mice (setting [4]), the hemoglobin content entry was “significant increases”, the mean corpuscular hemoglobin entry is “significant increases” and the “mean corpuscular hemoglobin concentration” value is listed as “significant increases”. Further, the “red blood cell count” value in the assay with mice (100 μg/kg intraperitoneal daily over 14 days, FIG. 11B) was “significant increases”. The platelet concentration entry in the assay on mice (intraperitoneal daily over 14 days, FIG. 11D) is “no large change”. For the same compound, in the assay with mice (intraperitoneal, 1 or 100 μg/kg daily over 14 days, FIG. 11A), the hematocrit result is given as “significantly increased according to an administration dose”. Moreover, the “character of erythropoietin receptor activation” value with erythropoietin receptor is “brief but potent activation”. Also, in the assay with erythropoietin receptor (setting [5]), the “erythropoietin receptor activation after 30 minutes” value was “decline thereafter” and the “time of maximum erythropoietin receptor activity (ERK1/2 phosphorylation)” value was determined as 30 min.
In the case of KKAVSGLKTLTHILRALGAQKEAI [ML4-1], the kon in assay [1] (SPR, Table 10) turned out to be 410 M⁻¹ s⁻¹.
In the case of LQLHVDKAVSGLRSLTTLLRALG [ML1], in assay [1] (SPR, Table 10), the kon stood at 1310 M⁻¹ s⁻¹ and the koff is 0.0085 s⁻¹. Also, in assay [1] (SPR, Table 11), the kon was 1310 M⁻¹ s⁻¹ and the koff worked out at 0.00847 s⁻¹. Besides, in the assay with PC12 cells [2], the “cell proliferative effects compared to EPO groups” value is “a large difference” and the “cell protective effects compared to EPO groups” value is given as “no large difference”.
For LHVDKAVSGLRSLTTLLRAL [ML2], the koff in assay [1] (SPR, Table 10) stood at 0.0044 s⁻¹.
Take LQLHVLKAVSGLLTHTTLLKALG [ML1-H1]: in assay [1] (SPR, Table 11), the kon was determined as 1010 M⁻¹ s⁻¹ and the koff came out at 0.00794 s⁻¹. In the assay with PC12 cells [2], the “cell proliferative effects compared to EPO groups” value is given as “a large difference” and the “cell protective effects compared to EPO groups” value was “no large difference”.
As to KGLRSLISLLRALGAQKEAI [ML6-1], in assay [1] (SPR, Table 10), the kon came out at 190 M⁻¹ s⁻¹ and the koff came to 0.03 s⁻¹.
As to LQRHVKKRVKGLKSLTTLLRALG [ML1-C3], in assay [1] (SPR, Table 11), the kon is 1100 M⁻¹ s⁻¹ and the koff amounted to 0.0109 s⁻¹. For the same compound, in the assay with PC12 cells [3], the cell proliferation rate entry is recorded as “cell proliferative effects to a degree similar to that of the natural erythropoietin”. Moreover, in the assay with PC12 cells [2], the “clustering of cell protective and proliferative effects relative to EPO” value is listed as “clustered as having similar effects as EPO”.
Take LDLEVDKAVSGLRSLTTLLRALG [ML1-C1]: in assay [1], the kon was found to be 1750 M⁻¹ s⁻¹ and the koff is 0.262 s⁻¹. Besides, the “clustering of cell protective and proliferative effects relative to EPO” value in the assay with PC12 cells [2] is given as “clustered as having similar effects as EPO”.
As to LQLHVLKAVAGLRTLAMIRRALA [ML1-H3], in assay [1] (SPR, Table 11), the kon stood at 4160 M⁻¹ s⁻¹ and the koff was 0.00477 s⁻¹. Also, in the assay on PC12 cells [2], the “cell proliferative effects compared to EPO groups” value is “a large difference” and the “cell protective effects compared to EPO groups” value is recorded as “no large difference”.
Take DKAVSGLRSLTTLLRAL [ML8]: in assay [1] (SPR, Table 10), the kon turned out to be 180 M⁻¹ s⁻¹ and the koff was determined as 0.08 s⁻¹.
Turning to LQRHVDKRVSGLRSLTTLLRALG [ML1-C2], in assay [1] (SPR, Table 11), the kon came to 1590 M⁻¹ s⁻¹ and the koff stood at 0.0188 s⁻¹. The cell proliferation rate result in the assay with PC12 cells [3] is given as “cell proliferative effects to a degree similar to that of the natural erythropoietin”. Also, in the assay on PC12 cells [2], the “clustering of cell protective and proliferative effects relative to EPO” value was “clustered as having similar effects as EPO”.
For NKAVAGLRSLTVN [ML8-1], in assay [1] (SPR, Table 10), the koff was found to be 0.15 s⁻¹.
Take TKVNFYAWKR [ML3]: in assay [1] (SPR, Table 10), the kon stood at 205 M⁻¹ s⁻¹ and the koff stood at 0.003 s⁻¹.
For “LHVLKAVSGLLTLTMIRRA (MLP-H) [ML1-H2 with two amino acids removed from both ends, for in vivo use]”, the “character of erythropoietin receptor activation” value with erythropoietin receptor is reported as “weak yet lasts for a prolonged period of time”. Moreover, the “erythropoietin receptor activation after 30 minutes” value with erythropoietin receptor (setting [5]) is recorded as “maintains activation even after 30 minutes”.
For the compound DKAVSGLRSLTTLLRALGAQKEAI [ML4], in assay [1] (SPR, Table 10), the kon amounted to 220 M⁻¹ s⁻¹ and the koff worked out at 0.0022 s⁻¹.
DEALDLEVDKAATGLRTLTTLIRAL [ML7-1]: in assay [1] (SPR, Table 10), the kon is 226 M⁻¹ s⁻¹ and the koff worked out at 0.0144 s⁻¹.
For LQLHVLKAVSGLLTLTMIRRALG [ML1-H2], in assay [1] (SPR, Table 11), the kon was determined as 3430 M⁻¹ s⁻¹ and the koff amounted to 0.00105 s⁻¹. In the assay with PC12 cells [2], the “cell proliferative effects compared to EPO groups” value is recorded as “a large difference” and the “cell protective effects compared to EPO groups” value is listed as “no large difference”.
Regarding `CC[C@H](C)[C@H](NC(=O)[C@H](C)NC(=O)[C@H](CCC(=O)O)NC(=O)[C@H](CCCCN)NC(=O)[C@H](CCC(N)=O)NC(=O)[C@H](C)NC(=O)CNC(=O)[C@H](CC(C)C)NC(=O)[C@H](C)NC(=O)[C@H](CCCNC(=N)N)NC(=O)[C@H](CC(C)C)NC(=O)[C@H](CC(C)C)NC(=O)[C@@H](NC(=O)[C@@H](NC(=O)[C@H](CC(C)C)NC(=O)[C@H](CO)NC(=O)[C@H](CCCNC(=N)N)NC(=O)[C@H](CC(C)C)NC(=O)CNC(=O)[C@@H](N)CO)[C@@H](C)O)[C@@H](C)O)C(=O)O` [ML6], the koff in assay [1] (SPR, Table 10) amounted to 0.045 s⁻¹.
Turning to TRVNYQAWKR [ML3-1], in assay [1] (SPR, Table 10), the kon was determined as 3080 M⁻¹ s⁻¹ and the koff is 0.013 s⁻¹.
As to SGLRSLTTLLRALG [ML5], in assay [1] (SPR, Table 10), the kon amounted to 304 M⁻¹ s⁻¹ and the koff was found to be 0.0001 s⁻¹.
As to LQLHVLKRVSGLLSHTMLLKALG [ML1-1], in assay [1] (SPR, Table 10), the kon came out at 5550 M⁻¹ s⁻¹ and the koff was found to be 0.0059 s⁻¹.
In the case of RHVQKAESGLRSLTKLLREL [ML2-1], in assay [1] (SPR, Table 10), the kon turned out to be 310 M⁻¹ s⁻¹ and the koff amounted to 0.0041 s⁻¹.
